Tests used:
[1] = system: CD1a-restricted T cell lines (J.RT-3/CD8-2 cells); format: cell-based; details: FIG. 7, comparison between homologs
[2] = system: CD1b transfectants; format: cell-based; details: test for mitogen effects
[3] = Iron-bound or unbound form detected by mass spectrometry; format: physicochemical; details: mass spectrometry: [M+Fe−2H]+ at m/z 923.5 or proton adduct at m/z 838.6
From the text: The newly discovered antigens share some structural homology to mycobactin siderophores but lack two hydroxyl groups present in mycobactins, which confer upon mycobactins their ability to bind iron.

[4] = system: CD1c transfectants; format: cell-based; details: test for mitogen effects
[5] = system: polyclonal T cells; test: Activation of polyclonal T cells; format: cell-based; details: test for mitogen effects
[6] = system: J.RT-3 T lymphoblastoid cells / CD1a; format: cell-based
[7] = system: CD1a-restricted T cells; test: CD1a-restricted T cell activation assay (CD8-2 T cell line); format: cell-based

Row | Compound | T cell response (ability to activate T cells) [1] | activation with CD1b transfectants [2] | form detected (iron-bound or unbound) [3] | activation with CD1c transfectants [4] | activation of polyclonal T cells [5] | calcium flux (activation) ([6]; […], Fura Red and Fluo-4, flow cytometry) | activation (calcium flux) in control settings ([6]; antigen, TCR or CD1a omitted, or cells not subjected to centrifugation (spin)) | CD1a-restricted T cell response (recognition by T cells) [7]
1 | CCCCCCCCCCCCCCCCCCCC(=O)NCCCCC(NC(=O)C1(C)COC(c2ccccc2O)=N1)C(=O)OC(C)CC(=O)NC1CCCCNC1=O (stereo not drawn) [DDM840] | weaker ability to activate T cells | – | – | – | – | – | – | –
2 | CCCCCCCCCCCCCCCCCC(=O)NCCCCC(NC(=O)C1(C)COC(c2ccccc2O)=N1)C(=O)OC(C)CC(=O)NC1CCCCNC1=O (stereo not drawn) [DDM812] | weaker ability to activate T cells | – | – | – | – | – | – | –
3 | CCCCCCCCCCCCCCC/C=C\C(=O)NCCCCC(NC(=O)C1(C)COC(c2ccccc2O)=N1)C(=O)OC(C)CC(=O)NC1CCCCNC1=O (stereo not drawn) [DDM838, didehydroxymycobactin] | most potent | not above to activate | unbound form | not above to activate | not above to activate | Strong calcium flux | No activation | –
4 | mycobactin [reference compound] | not recognized | – | iron-bound form | – | – | – | – | did not stimulate

— US7253159B2, “Methods and compositions for immunomodulation using CD1 antigens” (The Brigham and Women's Hospital, Inc., priority 2003, dated 2007)
